Data taken from publication PMC3596083 (Beilstein Journal of Organic Chemistry, 2013).
Where “and” joins values, the source holds several entries; their conditions need not be identical. Equal entries are not always repeated. Entries after “also recorded” stand apart in the source; their conditions may differ. Where two headings read alike, the source gives them in different places.

What was measured:
[1] = target: T1, GABAA-receptors (α1-GFP + β2 + γ2Long) expressed in CHO cells (Homo sapiens, UniProt P14867+P47870); assay: Whole-cell patch-clamp recordings with fast perfusion on CHO cells transiently expressing GABAA-receptors; type: cell-based; conditions: for changes in the current: application of 10 mM
T1 construct: expressed in transfected cells; host or cells: CHO-K1 (ATCC), transient transfection with Lipofectamine 2000
T1 sequence (P14867 28-456): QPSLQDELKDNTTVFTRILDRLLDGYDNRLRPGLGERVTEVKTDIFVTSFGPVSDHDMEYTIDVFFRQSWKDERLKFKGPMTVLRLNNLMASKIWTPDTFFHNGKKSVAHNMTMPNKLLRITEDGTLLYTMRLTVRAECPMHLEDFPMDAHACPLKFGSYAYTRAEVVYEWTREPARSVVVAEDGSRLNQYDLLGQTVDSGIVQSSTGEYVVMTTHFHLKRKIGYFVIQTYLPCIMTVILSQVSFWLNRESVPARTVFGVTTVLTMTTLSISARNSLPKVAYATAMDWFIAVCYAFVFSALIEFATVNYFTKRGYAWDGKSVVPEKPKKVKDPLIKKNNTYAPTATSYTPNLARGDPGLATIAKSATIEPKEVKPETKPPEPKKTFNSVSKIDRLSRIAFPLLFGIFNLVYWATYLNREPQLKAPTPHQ
T1 sequence (P47870 25-512 limits assumed): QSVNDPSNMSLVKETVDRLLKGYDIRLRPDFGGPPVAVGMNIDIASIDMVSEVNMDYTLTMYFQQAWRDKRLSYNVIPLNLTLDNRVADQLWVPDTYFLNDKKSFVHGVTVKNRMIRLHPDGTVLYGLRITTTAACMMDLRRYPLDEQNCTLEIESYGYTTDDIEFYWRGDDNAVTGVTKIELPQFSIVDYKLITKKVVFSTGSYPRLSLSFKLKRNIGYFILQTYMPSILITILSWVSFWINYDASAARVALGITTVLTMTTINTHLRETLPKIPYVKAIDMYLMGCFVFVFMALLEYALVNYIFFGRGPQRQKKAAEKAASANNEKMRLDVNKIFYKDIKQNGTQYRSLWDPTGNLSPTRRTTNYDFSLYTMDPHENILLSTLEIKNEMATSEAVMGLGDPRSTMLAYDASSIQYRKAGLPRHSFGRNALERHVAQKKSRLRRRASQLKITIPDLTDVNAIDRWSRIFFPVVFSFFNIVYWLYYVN
T1 sequence (P18507 40-475 partner): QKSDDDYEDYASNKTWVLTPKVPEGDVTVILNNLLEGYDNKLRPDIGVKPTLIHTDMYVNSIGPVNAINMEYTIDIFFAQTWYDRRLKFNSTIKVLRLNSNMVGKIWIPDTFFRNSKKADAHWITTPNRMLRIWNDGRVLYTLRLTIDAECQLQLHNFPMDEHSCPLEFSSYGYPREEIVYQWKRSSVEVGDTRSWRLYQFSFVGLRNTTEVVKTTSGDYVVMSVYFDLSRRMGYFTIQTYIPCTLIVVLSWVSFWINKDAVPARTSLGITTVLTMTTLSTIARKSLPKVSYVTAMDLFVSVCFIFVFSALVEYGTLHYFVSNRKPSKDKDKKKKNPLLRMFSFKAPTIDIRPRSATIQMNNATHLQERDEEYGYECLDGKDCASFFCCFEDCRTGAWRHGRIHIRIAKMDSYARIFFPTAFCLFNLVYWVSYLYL
Description: (§1) The investigations in this study were performed by using a standard ^36Cl^−-flux assay in mouse brain synaptoneurosomes. […] Moreover, ^36Cl^−-flux assays were carried out by using a 15 s incubation time. […] The activity of synthesized compounds was tested by using CHO cells transiently expressing GABAA-receptors in the configuration (α1-GFP + β2 + γ2Long). To analyze the functional properties of the compounds, we performed monitoring of ionic currents using whole-cell patch-clamp techniques. […] Then we applied different concentrations of the studied compounds and estimated the minimal concentration that induced currents and, if possible, their EC50.
Cell culture and transient transfection
Chinese Hamster Ovary (CHO-K1) cells were obtained from the American Type Culture Collection (ATCC, Molsheim, France) and maintained as previously described. One day before the transfection, cells were plated on the coverslips (12–14 mm in diameter), which were placed inside 35 mm cell culture dishes with 2 mL of medium. CHO cells were transfected with a total 3 µg cDNA of α1-GFP + β2 + γ2Long (ratio 1:1:1) using the Lipofectamine 2000 transfection protocol (Life Technology, USA). Three hours after the initial exposure of the cells to the cDNAs, a fresh […] solution replaced the old one.
Electrophysiological recordings were performed from fluorescent cells 48–72 hours after […]
Electrophysiological recordings
Whole-cell recordings were conducted on CHO-K1 cells at room temperature (20–25 °C) using an EPC-9 amplifier (HEKA Elektronik, Germany). Cells were continuously superfused with external solution containing (mM): NaCl 140, CaCl2 2, KCl 2.8, MgCl2 1, HEPES 20, glucose 10; pH 7.3; 320–330 mOsm. The patch pipette solution contained (mM): CsCl 140, MgCl2 2, MgATP 2, NaGTP 0.4, HEPES/CsOH 10, BAPTA/KOH 20; pH 7.3; 290 mOsm.
Pipettes were pulled from borosilicate glass capillaries (Harvard Apparatus Ltd, USA) and had resistances of 5–8 MΩ.
For rapid replacement of solutions, a system of two parallel rectangular tubes, 100 µm in diameter, located at a distance of 40–50 µm from the tested cell, was used. The movement of tubes was controlled by a computer-driven fast exchange system (SF 77A Perfusion Fast-Step, Warner, USA). As measured by open tip electrode controls (1/10 NaCl), in this system a 20–80% solution exchange time was within 2–3 ms. Cells with a low input resistance (<150 MΩ) were excluded from analysis.
For quantitative estimations of agonist action, dose-response relationships were fitted by the […]
I = Imax / (1 + (EC50/ [C])n) where I is the current amplitude induced by the agonist at concentration [C], Imax is the maximum response of the cell, n is the Hill coefficient and EC50 is the concentration for which a half-maximum response is induced. Concentration-response relationships were constructed using at least four points. […]

GABAA-receptors [2] = test system: GABAA-receptors; parameters: method as in PMID 12113824; conditions: cited from earlier work; for agonist character on GABAA-channels: chloride-flux assays on synaptoneurosomes
GABAA-receptors [3] = assay: Standard 36Cl−-flux assay in mouse brain synaptoneurosomes (Carlier et al.); type: cell-based; conditions: ratio of the EC50 values of ref 13
Description: as §1

[4] = whole-cell currents, mean ± error over x tested cells, read-out: EC50, mean

Cl.Cl.NCCCNC(=O)CCCN [7b]
melting point: 140 to 142 °C | currents induced compared with GABA ([1]; at concentrations of 10 mM): comparable to those for GABA 30–100 µM | EC50 [1, 4]: 1.08 ± 0.14 mM

NCCCCNC(=O)CCCN [7c]
agonist character on GABAA-channels (GABAA-receptors [2]): partial, full or superagonists | EC50 [1, 4]: 1.75 ± 0.33 mM

Cl.Cl.NCCCC(=O)NCCN [7a]
agonist character on GABAA-channels (GABAA-receptors [2]): partial, full or superagonists | melting point: 144 to 146 °C | current amplitude ([1]; at 2.6 mM, x = 4): 10–30 pA

NCCCC(=O)NCCCCCCCCNC(=O)CCCN [4c]
agonist character on GABAA-channels (GABAA-receptors [2]): partial, full or superagonists | induction of whole-cell currents ([1]; concentration of 15 mM): not able to induce currents

Cl.Cl.NCCCCCCNC(=O)CCCN [7d]
melting point: 147 to 150 °C | activation threshold [1]: about 100 µM | EC50 ([1]; example concentration-response curve (Figures 2B, 5C), read-out: EC50 from the concentration dependence shown in the figure): ~5 mM and 5.1 mM | EC50 [1, 4]: 5.25 ± 0.56 mM

Cl.Cl.NCCCCCCCCNC(=O)CCCN [7e]
melting point: 136 to 138 °C | current amplitude ([1]; at 5 mM, x = 3): 10–20 pA

NCCCC(=O)NCCCCCCNC(=O)CCCN [4b]
EC50 (GABAA-receptors [2]; 36Cl−-flux, mouse brain synaptoneurosomes, 15 s incubation, read-out: EC50 (Cl− uptake)): 0.733 mM | maximum Cl− uptake higher than that achieved by GABA (GABAA-receptors [2]; 36Cl−-flux, mouse brain synaptoneurosomes): about 50% | agonist character on GABAA-channels (GABAA-receptors [2]): superagonist; also recorded: partial, full or superagonists | EC50 fold higher than for GABA (GABAA-receptors [3]): more than 30 fold | changes in the current ([1]; x = 4): 0 pA

Cl.Cl.NCCCC(=O)NCc1ccc(CN)cc1
melting point: 251 to 253 °C

NCCCC(=O)NCCCCNC(=O)CCCN [4a]
agonist character on GABAA-channels (GABAA-receptors [2]): partial, full or superagonists | changes in the current ([1]; x = 4): 0 pA
